pKi: −log10 of the molar value.
What was measured:
Wistar male rat [1] = assay: Competition experiment of MBR ligand (psychological stressor, number of dejection); assay type: in vivo
Experimental: Using a Wistar male rat, psychological stressor similar to that in Biological Example 2 described above was loaded. Each treatment group was set as follows: a medium was intravenously administered (treatment group 1), the compound of the present invention (the compound of Example 38) was intravenously administered at a dose of 0.1 mg/kg (treatment group 2), an MBR selective agonist (CB34) was intravenously administered at a dose of 1 mg/kg (treatment group 3), or after the compound of the present invention (the compound of Example 38) was intravenously administered at a dose of 0.1 mg/kg, an MBR selective agonist was intravenously administered at a dose of 0.1 mg/kg (treatment group 4). In each group, stressor loading was initiated 10 minutes after administration, and the number of dejection was counted one hour later (10 animals in each group).

MBR = target: T1, MBR (Rattus norvegicus, UniProt P16257); assay: Receptor binding experiment ([3H]PK11195 competition); conditions: [3H]PK11195, rat membrana cerebri specimen; Cheng and Prusoff
T1 construct: A Wistar male rat was decapitated and the whole brain was extirpated, and then the cerebellum was removed; from tissue; host or cells: Wistar male rat brain (cerebellum removed), crude membrane preparation
Experimental: Affinity of the compound of the present invention for MBR was measured using a rat membrana cerebri specimen. The measuring method of the present invention has improved measurement accuracy and measurement sensitivity so as to evaluate the compound of the present invention as follows. A Wistar male rat was decapitated and the whole brain was extirpated, and then the cerebellum was removed. For the rat membrana cerebri specimen used in the binding experiment, 50 mmol/L of an ice-cold Iris-hydrochloric acid buffer (pH 7.4) was added and it was homogenized and centrifuged. After the resulting deposit was washed, it was resuspended to be prepared to about 1 mg/ml. The binding experiment was conducted using [^3H]PK11195 as an MBR selective ligand.
In the case of calculating the all binding amount in a saturation experiment, the membrane specimen, [^3H]PK11195 at several concentrations, dimethyl sulfoxide (DMSO) in a final concentration of 0.5 vol %, and 50 mmol/L of a tris-hydrochloric acid buffer (pH 7.4) were mixed (all amount 200 μl), followed by incubation at room temperature for one hour. In the case of calculating the nonspecific binding amount, […] in a final concentration of 20 ptrnol/L was added instead of DMSO, followed by incubation for one hour. […] After the filter was dried, radioactivity was measured by a liquid scintillation counter. […]

Wistar male rat [2] = assay: Study on antistress effect (1): psychological stressor, number of dejection; assay type: in vivo; conditions: 30 min before stressor, counted one hour later
Experimental: Psychological stressor was loaded using a Wistar male rat (Brain Res. 1994; 641: pp. 21-28). Water was accumulated by the depth of about 10 cm in a container having a platform in the center. Thirty-minutes after a medium or the compound of the present invention (the compound of Example 38) was intravenously administered at a dose of 0.01 mg/kg or orally administered at a dose of 1 mg/kg, stressor loading was initiated, and one hour later, the number of dejection was counted (10 animals in each group). The rat administered the compound of the present invention and the rat to which the stress or was not loaded had little dejection after one hour.

[3] = test system: male Sprague-Dawley (SD) rat; assay: Study on antistress effect (2): physical (restraint) stressor, number of dejection; assay type: in vivo; conditions: oral 1 mg/kg, 30 min before restraint; 60 minutes after initiation of stressor loading
Experimental: Physical stressor was loaded using a male Sprague-Dawley (SD) rat (CHARLES RIVER LABORATORIES JAPAN, INC., 7 week old at being used) (Gastroenterology 1988; 94: pp. 611-622; Jpn. J. Phrmacol. 1998; 77: pp. 211-217). Thirty minutes after a medium (0.5% Tween 80 physiological saline) or the compound of the present invention (the compound of Example 38) was orally administered at a dose of 1 mg/kg, stressor loading was initiated by restraining both anterior branches of the rat with a binding band (Marvel Ltd.). Evaluation was performed by measuring the number of dejection 30 and 60 minutes after the initiation of stressor loading (15 animals in each group).

[4] = Oral absorbability of rat; assay type: in vivo; conditions: plasma; fasted SD male rat; oral 1 mg/kg vs intravenous 0.1 mg/kg; from AUC; read-out: Bioavailability (B.A.)
Experimental: Using a fasted SD male rat (CHARLES RIVER LABORATORIES JAPAN, INC.), under the condition that the compound of the present invention (the compound of Example 38) was solubilized, the plasma concentration after administration in the tail vein at a dose of 0.1 mg/kg and the plasma concentration after gastric gavage administration at a dose of 1 mg/kg were measured. The blood was collected from a rat jugular vein under an unanesthetized condition 5, 15, and 30 minutes, and 1, 2, 3, 4, 6, and 8 hours after intravenous administration, and 15 and 30 minutes, and 1, 2, 3, 4, 6, and 8 hours after oral administration. Then the blood was centrifuged at 3000 rpm for 10 minutes and the supernatant was collected as plasma. The concentration of the compound in plasma was measured with LC/MS/MS (1100 HPLC System (Agilent Co. Ltd.), API 4000 (MDS SCIEX Ltd.)). From the obtained plasma concentration, an area under the curve (AUC, ngh/ml) and a maximum plasma concentration (Cmax, ng/mL) were calculated. In addition, Bioavailability (B.A.) of the compound of the present invention was calculated from AUC in oral administration and AUC in intravenous administration.

Wistar male rat [5] = assay: Inhibitory action on abdominal pain in RCS loading model; assay type: in vivo; conditions: oral 1 mg/kg twice a day, RCS 4 days, balloon 0-1.2 mL, versus medium treatment group (FIG. 1)
Description: A Wistar male rat (6 week old at being received) was anesthetized with pentobarbital sodium (Kyoritsu Seiyaku Corporation), its abdomen was incised and the abdominal muscle was exposed, and then Force Transducer (F-12IS-SL (STAR MEDICAL Ltd.)) was fitted. Penicillin was intramuscular administered after the operation, and a recuperative period of 5 days was set.
During from AM 9:00 to PM 5:00 on a 1st day of the initiation of stress loading, the feeding environment temperature was alternately changed to 24° C. and 2° C. in an hour interval, and during from PM 5:00 to AM 9:00 in the next morning, the rat was fed under the environment of 2° C. […]
After RCS was loaded for 4 days, abdominal pain evaluation was performed on a 5th day (10 to 12 animals in each group). […] Contraction of abdominal muscle for extension stimulation in each balloon liquid amount was recorded using the Chart software (Chart v5.0.2. (ADInstruments Inc.)) by passing the signal from the pressure transducer amplified by the amplifier (Windo Gragf (GOULD Inc.)) through the data collection system (PowerLab (ADInstruments Inc.)). During 5 minutes in which balloon extension stimulation was loaded, the number of signals from the pressure transducer in 3 minutes was counted, and the obtained number was regarded as the number of abdominal muscle contraction and set as the index of abdominal pain.

Structure (SMILES) | the number of dejection: mean number (Wistar male rat [1]; treatment group 3: intravenous 1 mg/kg, stressor 10 min after administration, counted one hour later) | pKi (MBR) | the number of dejection: mean number (Wistar male rat [2]; intravenous administration 0.01 mg/kg) | the number of dejection: mean number (Wistar male rat [2]; oral administration 1 mg/kg) | the number of dejection: mean number [3] | bioavailability [4] [%] | the number of dejection: mean number (Wistar male rat [1]; treatment group 2: intravenous 0.1 mg/kg, stressor 10 min after administration, counted one hour later) | the number of dejection: mean number (Wistar male rat [1]; treatment group 4: Example 38 intravenous 0.1 mg/kg, then MBR selective agonist (CB34) intravenous 0.1 mg/kg) | number of abdominal muscle contraction (index of abdominal pain) (Wistar male rat [5])
CCCN(CCC)C(=O)c1c(-c2ccc(Cl)cc2)nc2cc(Cl)cc(Cl)n12 [CB34, 5,7-dichloro-2-(4-chlorophenyl)-3-dipropylaminocarbonylimidazo[1,2-a]pyridine, reference compound] | 9.5 |  |  |  |  |  |  |  | 
COc1cc(Cl)ccc1[C@H]1c2[nH]c3cccc(F)c3c2C2(CC2)CN1C(C)=O [Example 38, (1S)-2-acetyl-1-(4-chloro-2-methoxyphenyl)-5-fluoro-1,2,3,9-tetrahydrospiro[β-carboline-4,1′-cyclopropane]] |  | 10.10 | 8.2 | 6.2 | 7.5 | 86.9 | 7.3 | 10.1 | significantly inhibited

From patent US8952158B2, “Tricyclic compound and use thereof” (Ono Pharmaceutical Co., Ltd., priority 2004, dated 2015)
